Earlier results in patent US20130243825A1, “COMPOSITIONS AND METHODS FOR THE TREATMENT OF SKIN DISEASES” (priority 2012, published 2013).
Entries after “also recorded” stand apart in the source; their conditions may differ.

System: vasoconstriction
Settings: seven potency groups, I ultra high to VII least potent; Ference and Last 2009

Compound	potency group by strength in standard vasoconstriction assay
CCC(=O)OCC(=O)[C@@]1(OC(=O)CC)[C@H](C)C[C@H]2[C@H]3[C@H]([C@@H](O)C[C@@]21C)[C@@]1(C)C=CC(=O)C=C1C[C@H]3Cl [Alclometasone dipropionate 0.05%, Alclometasone dipropionate]	Low (VI)
CCCCC(=O)O[C@]1(C(=O)CO)[C@@H](C)C[C@H]2[C@@H]3CCC4=CC(=O)C=C[C@]4(C)[C@@]3(F)[C@@H](O)C[C@@]21C [Betamethasone valerate 0.1%, Betamethasone valerate]	Medium (IV and V)
CCC(=O)O[C@]1(C(=O)CCl)[C@@H](C)C[C@H]2[C@@H]3CCC4=CC(=O)C=C[C@]4(C)[C@@]3(F)[C@@H](O)C[C@@]21C [Clobetasol propionate 0.05%, Clobetasol propionate]	Ultra high (I)
CC1(C)O[C@@H]2C[C@H]3[C@@H]4CCC5=CC(=O)C=C[C@]5(C)[C@H]4[C@@H](O)C[C@]3(C)[C@]2(C(=O)CO)O1 [Desonide 0.05%, Desonide]	Low (VI)
C[C@@H]1C[C@H]2[C@@H]3CCC4=CC(=O)C=C[C@]4(C)[C@@]3(F)[C@@H](O)C[C@]2(C)[C@H]1C(=O)CO [Desoximetasone 0.05%, Desoximetasone]	Medium (IV and V)
C[C@@H]1C[C@H]2[C@@H]3CCC4=CC(=O)C=C[C@]4(C)[C@@]3(F)[C@@H](O)C[C@]2(C)[C@H]1C(=O)CO [Desoximetasone 0.25%, Desoximetasone]	High (II)
CC1(C)O[C@@H]2C[C@H]3[C@@H]4C[C@H](F)C5=CC(=O)C=C[C@]5(C)[C@@]4(F)[C@@H](O)C[C@]3(C)[C@]2(C(=O)CO)O1 [Fluocinolone acetonide 0.025%, Fluocinolone acetonide]	Medium (IV and V)
CC(=O)OCC(=O)[C@@]12OC(C)(C)O[C@@H]1C[C@H]1[C@@H]3C[C@H](F)C4=CC(=O)C=C[C@]4(C)[C@@]3(F)[C@@H](O)C[C@@]12C [Fluocinonide 0.1%, Fluocinonide]	Ultra high (I)
CC(=O)OCC(=O)[C@@]12OC(C)(C)O[C@@H]1C[C@H]1[C@@H]3C[C@H](F)C4=CC(=O)C=C[C@]4(C)[C@@]3(F)[C@@H](O)C[C@@]12C [Fluocinonide 0.05%, Fluocinonide]	High (II)
CCC(=O)O[C@]1(C(=O)SCF)[C@H](C)C[C@H]2[C@@H]3C[C@H](F)C4=CC(=O)C=C[C@]4(C)[C@@]3(F)[C@@H](O)C[C@@]21C [Fluticasone propionate 0.005%, Fluticasone propionate]	Medium to high (III)
CCC(=O)O[C@]1(C(=O)SCF)[C@H](C)C[C@H]2[C@@H]3C[C@H](F)C4=CC(=O)C=C[C@]4(C)[C@@]3(F)[C@@H](O)C[C@@]21C [Fluticasone propionate 0.05%, Fluticasone propionate]	Medium (IV and V)
CC1(C)O[C@@H]2C[C@H]3[C@@H]4CCC5=CC(=O)CC[C@]5(C)[C@@]4(F)[C@@H](O)C[C@]3(C)[C@]2(C(=O)CCl)O1 [Halcinonide 0.1%, Halcinonide]	High (II)
C[C@]12CCC(=O)C=C1CC[C@@H]1[C@@H]2[C@@H](O)C[C@@]2(C)[C@H]1CC[C@]2(O)C(=O)CO [Hydrocortisone 1%, 2.5%, Hydrocortisone]	Least potent (VII)
CCCC(=O)O[C@]1(C(=O)CO)CC[C@H]2[C@@H]3CCC4=CC(=O)CC[C@]4(C)[C@H]3[C@@H](O)C[C@@]21C [Hydrocortisone butyrate 0.1%, Hydrocortisone butyrate]	Medium (IV and V); also recorded: Low (VI)
CCCC(=O)O[C@]1(C(=O)COC(=O)CC)CC[C@H]2[C@@H]3CCC4=CC(=O)CC[C@]4(C)[C@H]3[C@@H](O)C[C@@]21C [Hydrocortisone probutate 0.1%, Hydrocortisone probutate]	Medium (IV and V)
CCCCC(=O)O[C@]1(C(=O)CO)CC[C@H]2[C@@H]3CCC4=CC(=O)CC[C@]4(C)[C@H]3[C@@H](O)C[C@@]21C [Hydrocortisone valerate 0.2%, Hydrocortisone valerate]	Medium (IV and V)
C[C@@H]1C[C@H]2[C@@H]3CCC4=CC(=O)C=C[C@]4(C)[C@@]3(Cl)[C@@H](O)C[C@]2(C)[C@@]1(OC(=O)c1ccco1)C(=O)CCl [Mometasone furoate 0.1%, Mometasone furoate]	Medium (IV and V)
Augmented betamethasone dipropionate	Ultra high (I); also recorded: High (II)

System: standardized wounds created by sequential tape stripping
Settings: applied to a wound for 15 seconds, 24 subjects; Pagnoni et al. 2004

Compound	stinging/burning sensation
CC(C)O [70% isopropyl alcohol, isopropyl alcohol]	stung
